Laboratory results taken from US20260207621A1 (Vividion Therapeutics, Inc., priority 2022, published 2026).

Legend:
[1] = tested on: Nrf2; assay: Nrf2 antagonism assay: ARE luciferase reporter in KYSE-70 cells; type: cell-based; conditions: positive Imax corresponds to Nrf2 antagonism; for Emax: Homo sapiens, KYSE-70, KYSE-70 cells, read-out: KYSE70 Cellular ARE Luciferase Imax (%)
From the text: NRF2 binds to a promoter region, antioxidant response element (ARE), to initiate expression of multiple genes. ARE luciferase reporter assays are used to test whether a ligand can activate or repress the expression of target genes using luciferase as a reporter gene.
KYSE-70 is an esophageal squamous cell carcinoma cell line with a Nrf2 mutation at amino acid position W24C. This mutation lowers the affinity between the E3 ligase that includes KEAP1 and Nrf2, resulting in a state in which the synthesis rate of new Nrf2 is faster than the E3's degradation rate of Nrf2, resulting in a “Nrf2 high” state. In KYSE-70 cells, genes are inserted directly after the ARE that trigger the expression of luciferase. Without a NRF2 antagonist in this modified KYSE70 cell line which has an inherently “NRF2 high state”, luciferase is expressed, and a signal is observed.
Nrf2 antagonists bind at C151 of KEAP1 and stabilize the E3 which results in an increased degradation rate of Nrf2. Increased degradation of Nrf2 results in less expression of luciferase, and therefore a less intense signal.
An IC50 is generated from the dose-response curve and an Imax. A positive Imax corresponds to Nrf2 antagonism. Imax >90% correlates with in vivo tumor grown inhibition. Compounds with Imax >50% were included in this description.

[2] = biological target: T1, KEAP1 C151 (Homo sapiens, UniProt Q14145); assay: Nrf2 TMT measurement: in vitro TE50 for KEAP1 C151 (IA-DTB competition, targeted TMT mass spectrometry) in MDA-MB-468 cell lysate; type: binding; conditions: in vitro target engagement of KEAP1 C151, targeted TMT, read-out: KEAP1_C151 TE50
T1 construct: treating 500 μg of cell lysate generated from MDA-MB-468 breast cancer cells with DMSO or compound; endogenous in cells; host or cells: MDA-MB-468 breast cancer cell lysate
Protocol: In vitro TE50 values for KEAP_C151 were obtained by treating 500 μg of cell lysate generated from MDA-MB-468 breast cancer cells with DMSO or compound for 1 hour at room temperature followed by the addition of 200 μM IA-DTB (in DMSO) for one hour at room temperature. Samples were then precipitated by the addition of 8× ice cold acetonitrile and incubated at −80° C. for two hours. Protein was then pelleted by centrifugation (4,200 RPM, 45 min, 4° C.). The pelleted material was resuspended in 9M Urea, 50 mM ammonium bicarbonate and proteins were reduced and alkylated by the addition of DTT and iodoacetamide (10 and 30 mM, respectively). Following reduction and alkylation, samples were exchanged into 2M urea (Zeba spin desalting plates, Thermo Fisher) and digested with Trypsin. IA-DTB labeled peptides were isolated with streptavidin agarose resin. Enriched peptides were eluted by the addition of 50% acetonitrile (ACN) 0.1% Formic Acid (FA) and dried in a SpeedVac vacuum concentrator.
Dried peptides were resuspended in 0.2 M EPPS pH 8.5 and treated with 6.5 μL of 11-plex tandem mass tag (TMT) (8.3 μg/μL in dry ACN) for 2 hours at room temperature. Reactions were quenched by the addition of 6.5 μL of 5% Hydroxylamine. Samples were then combined and desalted on a Biotage Evolute express ABN plate (600-0010-PX01).
Targeted TMT. Targeted TMT measurements were collected using an Orbitrap LumosTribrid Mass Spectrometer (Thermo Scientific) coupled to an UltiMate 3000 Series Rapid Separation LC system and autosampler (Thermo Scientific Dionex). Peptides were eluted onto a custom C18 capillary analytical column (75-μm inner diameter fused silica, packed with Acclaim PepMap C18 resin (Thermo Scientific)) using an Acclaim PepMap 100 (Thermo 164535) loading column, and separated at a flow rate of 1.0 μl min−1. Data were acquired using a specific MS3-based TMT method targeting the peptide containing KEAP1 C151 (C(+324.2)[…], +3 charge state) where MS2 peptide fragmentation is triggered upon detection of the peptide precursor ion. Subsequent MS3 analysis was then performed using pre-selected peptide fragment ions that were isolated for fragmentation using synchronous precursor selection. RAW files were converted to MZXML format and searched with the SEQUEST algorithm using the MassPike software package. TMT quantitation was performed with a filter requiring at least ten summed signal-to-noise for control channels. Quantified signals were used for dose response curve-fitting and IC50 calculation using R's drc package.

T1 sequence (Q14145 whole entry): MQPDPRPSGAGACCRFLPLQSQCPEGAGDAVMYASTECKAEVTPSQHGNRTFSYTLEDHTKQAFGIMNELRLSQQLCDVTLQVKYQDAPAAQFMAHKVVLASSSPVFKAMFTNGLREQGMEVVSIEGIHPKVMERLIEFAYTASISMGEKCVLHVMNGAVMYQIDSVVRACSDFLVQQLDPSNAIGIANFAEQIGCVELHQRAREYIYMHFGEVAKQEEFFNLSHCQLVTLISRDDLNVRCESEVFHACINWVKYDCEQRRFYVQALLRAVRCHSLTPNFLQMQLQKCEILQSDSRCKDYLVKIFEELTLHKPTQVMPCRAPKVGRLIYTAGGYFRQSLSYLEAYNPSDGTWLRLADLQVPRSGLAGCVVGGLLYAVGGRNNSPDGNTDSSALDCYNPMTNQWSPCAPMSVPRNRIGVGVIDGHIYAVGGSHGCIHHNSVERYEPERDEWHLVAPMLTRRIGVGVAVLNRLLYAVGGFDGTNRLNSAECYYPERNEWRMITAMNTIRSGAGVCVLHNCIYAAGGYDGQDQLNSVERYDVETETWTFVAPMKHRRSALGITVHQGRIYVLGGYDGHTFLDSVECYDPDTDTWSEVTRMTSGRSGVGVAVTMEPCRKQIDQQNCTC

SMILES | Emax [1] | IC50 [2] | KYSE70 Cellular ARE Luciferase Imax (%) ([1]; KYSE-70 cells)
C=CC(=O)N1CCOCC1c1cc(Cl)cc(-c2ccnnc2)c1 (single isomer, unassigned) [Compound 14, 1-(3-(3-chloro-5-(pyridazin-4-yl)phenyl)morpholino)prop-2-en-1-one] | 55% | 0.144 µM | 
C=CC(=O)N1CCN(S(C)(=O)=O)C[C@H]1c1cc(Cl)cc(-c2cc[nH]c(=O)c2)c1 (single isomer, unassigned) [Compound 15] | 57% | 0.022 µM | 
C=CC(=O)N1CCN(S(C)(=O)=O)C[C@H]1c1cc(Cl)cc(-c2ccnc(N3CCCC3=O)c2)c1 (single isomer, unassigned) [Compound 16] | 62% | 0.0022 µM | 
C=CC(=O)N1CCN(C(C)=O)C[C@H]1c1cc(Cl)cc(-c2ncccn2)c1 (single isomer, unassigned) [Compound 17] | 65% | 0.0963 µM | 
C=CC(=O)N1[C@H](C)COC[C@H]1c1cc(Cl)cc(-c2ccnc(N3CCCC3=O)c2)c1 (single isomer, unassigned) [Compound 18] | 69% | 0.01 µM | 
C=CC(=O)N1CCOC[C@H]1c1cc(Cl)cc(-c2ncc(F)cn2)c1 (single isomer, unassigned) [Compound 19] | 84% | 0.033 µM | 
C=CC(=O)N1CCN(C(C)=O)C[C@H]1c1cc(Cl)cc(C2CCOCC2)c1 (single isomer, unassigned) [Compound 26] | 56% | 0.088 µM | 
C=CC(=O)N1CCS(=O)(=O)CC1c1cc(Cl)cc(-c2ncccn2)c1 (single isomer, unassigned) [Compound 31, 1-(3-(3-chloro-5-(pyrimidin-2-yl)phenyl)-1,1-dioxidothiomorpholino)prop-2-en-1-one] | 66% | 0.036 µM | 
C=CC(=O)N1CCS(=O)(=O)CC1c1cc(Cl)cc(-c2nnn(C)n2)c1 (single isomer, unassigned) [Compound 32, 1-(3-(3-chloro-5-(2-methyl-2H-tetrazol-5-yl)phenyl)-1,1-dioxidothiomorpholino)prop-2-en-1-one] | 52% | 0.063 µM | 
C=CC(=O)N1CCOCC1c1cc(Cl)nc(-c2cc[nH]c(=O)c2)c1 (single isomer, unassigned) [Compound 33, 4-(4-acryloylmorpholin-3-yl)-6-chloro-[2,4′-bipyridin]-2′(1′H)-one] | 82% | 0.12 µM | 
C=CC(=O)N1CCOCC1c1cc(Cl)cc(-c2ccc3nccnc3c2)c1 (single isomer, unassigned) [Compound 34, 1-(3-(3-chloro-5-(quinoxalin-6-yl)phenyl)morpholino)prop-2-en-1-one] | 83% | 0.018 µM | 
C=CC(=O)N1CCOCC1c1cc(Cl)cc(-c2ccnc(C)n2)c1 (single isomer, unassigned) [Compound 35, 1-(3-(3-chloro-5-(2-methylpyrimidin-4-yl)phenyl)morpholino)prop-2-en-1-one] | 89% | 0.0178 µM | 
C=CC(=O)N1CCOCC1c1cc(Cl)cc(-c2cccn(C)c2=O)c1 (single isomer, unassigned) [Compound 36, 3-(3-(4-acryloylmorpholin-3-yl)-5-chlorophenyl)-1-methylpyridin-2(1H)-one] | 69% | 0.11 µM | 
C=CC(=O)N1CCOCC1c1cc(Cl)cc(-c2cnc3cccnc3c2)c1 (single isomer, unassigned) [Compound 37, 1-(3-(3-chloro-5-(1,5-naphthyridin-3-yl)phenyl)morpholino)prop-2-en-1-one] | 85% | 0.022 µM | 
C=CC(=O)N1CCOCC1c1cc(Cl)cc(-c2cc(C)ncn2)c1 (single isomer, unassigned) [Compound 38, 1-(3-(3-chloro-5-(6-methylpyrimidin-4-yl)phenyl)morpholino)prop-2-en-1-one] | 89% | 0.027 µM | 
C=CC(=O)N1CCS(=O)(=O)CC1c1cc(Cl)cc(-c2cc[nH]c(=O)c2)c1 (single isomer, unassigned) [Compound 39, 4-(3-(4-acryloyl-1,1-dioxidothiomorpholin-3-yl)-5-chlorophenyl)pyridin-2(1H)-one] | 66% | 0.049 µM | 
C=CC(=O)N1CCOCC1c1cc(Cl)cc(-c2ccnc(N)n2)c1 (single isomer, unassigned) [Compound 40, 1-(3-(3-(2-aminopyrimidin-4-y1)-5-chlorophenyl)morpholino)prop-2-en-1-one] | 93% | 0.04 µM | 
C=CC(=O)N1CCOCC1c1cc(Cl)cc(-c2nc[nH]n2)c1 (single isomer, unassigned) [Compound 41, 1-(3-(3-chloro-5-(1H-1,2,4-triazol-3-yl)phenyl)morpholino)prop-2-en-1-one] | 68% | 0.2 µM | 
C=CC(=O)N1CCOCC1c1cc(Cl)cc(-c2ccncn2)c1 (single isomer, unassigned) [Compound 42, 1-(3-(3-chloro-5-(pyrimidin-4-yl)phenyl)morpholino)prop-2-en-1-one] | 79% | 0.037 µM | 
C=CC(=O)N1CCOCC1c1cc(Cl)cc(-c2ccn3ccnc3c2)c1 (single isomer, unassigned) [Compound 43, 1-(3-(3-chloro-5-(imidazo[1,2-a]pyridin-7-yl)phenyl)morpholino)prop-2-en-1-one] | 87% | 0.025 µM | 
C=CC(=O)N1CCOC[C@H]1c1cc(Cl)cc(-c2ccc(F)c(C(N)=O)c2)c1 (single isomer, unassigned) [Compound 44] | 93% | 0.0157 µM | 
C=CC(=O)N1CC(C)(C)OC[C@H]1c1cc(Cl)cc(-c2ncc(F)cn2)c1 (single isomer, unassigned) [Compound 45] | 83% | 0.089 µM | 
C=CC(=O)N1CC(C)(C)OC[C@H]1c1cc(Cl)cc(-c2cc(C)ncn2)c1 (single isomer, unassigned) [Compound 46] | 84% | 0.14 µM | 
C=CC(=O)N1CC(C)(C)OC[C@H]1c1cc(Cl)cc(-c2ccc3nccnc3c2)c1 (single isomer, unassigned) [Compound 47] | 74% | 0.02 µM | 
C=CC(=O)N1CC(C)(C)OC[C@H]1c1cc(Cl)cc(-c2ccnc(C)n2)c1 (single isomer, unassigned) [Compound 48] | 85% | 0.066 µM | 
C=CC(=O)N1CCOCC1c1cc(Cl)cc(-c2ccnc(OC)n2)c1 (single isomer, unassigned) [Compound 49, 1-(3-(3-chloro-5-(2-methoxypyrimidin-4-yl)phenyl)morpholino)prop-2-en-1-one] | 91% | 0.042 µM | 
C=CC(=O)N1CCS(=O)(=O)CC1c1cc(Cl)cc(-c2ccnc(C)n2)c1 (single isomer, unassigned) [Compound 50, 1-(3-(3-chloro-5-(2-methylpyrimidin-4-yl)phenyl)-1,1-dioxidothiomorpholino)prop-2-en-1-one] | 86% | 0.573 µM | 
C=CC(=O)N1CCS(=O)(=O)CC1c1cc(Cl)cc(-c2ccnc(C)n2)c1 (single isomer, unassigned) [Compound 51, 1-(3-(3-chloro-5-(2-methylpyrimidin-4-yl)phenyl)-1,1-dioxidothiomorpholino)prop-2-en-1-one] |  | 0.237 µM | 89%
